According to ChEMBL document CHEMBL1125820, “Structure-activity relationship of mutagenic aromatic and heteroaromatic nitro compounds. Correlation with molecular orbital energies and hydrophobicity” (J Med Chem, 1991):

How the values were obtained:
[1] = Partition coefficient (logP); details: octanol/water
[2] = system: Salmonella typhimurium; assay: Mutagenic activity in an Ames test on Salmonella Typhimurium TA98; Activity is log of revertants/nmol; type: functional, Salmonella enterica subsp. enterica serovar Typhimurium; set-up: scale not given here

Question: Which logP [1] does the source give for O=[N+]([O-])c1ccc2c3c(cccc13)-c1ccccc1-2 here?
Answer: The logP was 4.69.

Question: And the Activity [2]?
Answer: The Activity was 3.67.

Question: Which results are given for O=[N+]([O-])c1ccc2c3c(cccc13)-c1cc3ccccc3cc1-2?
Answer: logP [1]: 5.87; Activity [2]: 2.76

Question: For CC(=O)Nc1ccc2c(c1)Cc1cc([N+](=O)[O-])ccc1-2, which logP [1] is on record?
Answer: The logP was 3.08.

Question: And the Activity [2]?
Answer: The Activity was 2.85.

Question: With O=[N+]([O-])c1ccc2[nH]ccc2c1 as the compound, how does the logP [1] read?
Answer: Its logP is 2.13.

Question: And the Activity [2]?
Answer: The Activity was 0.57.

Question: For O=[N+]([O-])c1c2c3c(ccc4cccc(c43)CC2)c2ccccc12, which logP [1] is on record?
Answer: Its logP is 6.16.

Question: And the Activity [2]?
Answer: The Activity was 0.3.

Question: With O=[N+]([O-])c1ccc2ccc3c4c(cc5ccc1c2c53)CCCC4 as the compound, how does the logP [1] read?
Answer: Its logP is 6.57.

Question: And the Activity [2]?
Answer: The Activity was 0.3.

Question: Which results are given for O=[N+]([O-])c1ccc(-c2ccc([N+](=O)[O-])cc2)cc1?
Answer: logP [1]: 3.52; Activity [2]: 1.17

Question: With O=[N+]([O-])c1ccc2cccc3c2c1C=C3 as the compound, how does the logP [1] read?
Answer: The logP was 3.36.

Question: What about the Activity [2] of the same compound?
Answer: Its Activity is 1.77.

Question: Which logP [1] does the source give for O=[N+]([O-])c1c(Cl)c(Cl)c2c(c1Cl)Oc1cc(Cl)c(Cl)cc1O2 here?
Answer: The logP was 7.84.

Question: And the Activity [2]?
Answer: The Activity was -0.33.

Question: With C=Cc1ccc([N+](=O)[O-])cc1 as the compound, how does the logP [1] read?
Answer: Its logP is 2.61.

Question: And the Activity [2]?
Answer: Its Activity is -1.3.

Question: Which logP [1] does the source give for O=[N+]([O-])c1ccc(F)cc1F here?
Answer: Its logP is 1.89.

Question: What about the Activity [2] of the same compound?
Answer: Its Activity is -1.66.

Question: For O=[N+]([O-])c1cc2ccccc2c2ccccc12, which logP [1] is on record?
Answer: Its logP is 4.23.

Question: And the Activity [2]?
Answer: Its Activity is 2.25.

Question: With O=[N+]([O-])c1ccc2c3c([N+](=O)[O-])ccc4ccc5ccc6ccc1c2c6c5c43 as the compound, how does the logP [1] read?
Answer: Its logP is 6.07.

Question: What about the Activity [2] of the same compound?
Answer: Its Activity is 4.33.

Question: Which results are given for O=[N+]([O-])c1ccc2c(c1)Cc1cc([N+](=O)[O-])ccc1-2?
Answer: logP [1]: 3.35; Activity [2]: 3.22

Question: For Nc1c(Br)cc([N+](=O)[O-])cc1[N+](=O)[O-], which logP [1] is on record?
Answer: The logP was 2.78.

Question: What about the Activity [2] of the same compound?
Answer: The Activity was -1.32.

Question: For O=[N+]([O-])c1ccc(F)cc1, which logP [1] is on record?
Answer: The logP was 1.8.

Question: What about the Activity [2] of the same compound?
Answer: The Activity was -0.23.

Question: Which results are given for CN1Cc2cc([N+](=O)[O-])ccc2N1?
Answer: logP [1]: 1.77; Activity [2]: -1.1

Question: Which results are given for O=[N+]([O-])c1ccc2ccc3cccc4cc(O)c1c2c34?
Answer: logP [1]: 4.34; Activity [2]: 1.89

Question: Which results are given for Nc1ccc2ccc3ccc([N+](=O)[O-])c4ccc1c2c34?
Answer: logP [1]: 3.63; Activity [2]: 2.43

Question: Which logP [1] does the source give for Nc1ccc2c(c1)Cc1cc([N+](=O)[O-])ccc1-2 here?
Answer: Its logP is 3.06.

Question: And the Activity [2]?
Answer: The Activity was 1.56.

Question: For O=[N+]([O-])c1cccc2c([N+](=O)[O-])cccc12, which logP [1] is on record?
Answer: The logP was 2.58.

Question: And the Activity [2]?
Answer: The Activity was 0.52.

Question: With O=[N+]([O-])c1ccc2ccc3cc4c(c5ccc1c2c35)CCCC4 as the compound, how does the logP [1] read?
Answer: The logP was 6.57.

Question: What about the Activity [2] of the same compound?
Answer: Its Activity is 0.9.

Question: Which results are given for CN1Cc2ccc([N+](=O)[O-])cc2N1?
Answer: logP [1]: 1.77; Activity [2]: -0.41

Question: With O=[N+]([O-])c1cccc2[nH]c3ccccc3c12 as the compound, how does the logP [1] read?
Answer: Its logP is 3.51.

Question: What about the Activity [2] of the same compound?
Answer: The Activity was -2.

Question: With Nc1cccc(-c2ccc([N+](=O)[O-])cc2)c1 as the compound, how does the logP [1] read?
Answer: Its logP is 2.68.

Question: What about the Activity [2] of the same compound?
Answer: Its Activity is 0.25.

Question: For O=[N+]([O-])c1ccc2c(c1)-c1cccc3cccc-2c13, which logP [1] is on record?
Answer: Its logP is 4.69.

Question: What about the Activity [2] of the same compound?
Answer: The Activity was 4.05.

Question: With O=[N+]([O-])c1ccc2c(c1)Cc1ccccc1-2 [2-NITROFLUORENE] as the compound, how does the logP [1] read?
Answer: The logP was 3.37.

Question: What about the Activity [2] of the same compound?
Answer: The Activity was 1.43.

Question: With Cc1cc(-c2ccccc2)ccc1[N+](=O)[O-] as the compound, how does the logP [1] read?
Answer: Its logP is 3.99.

Question: And the Activity [2]?
Answer: Its Activity is -0.1.

Question: For COc1ccc2c(c1)Cc1cc([N+](=O)[O-])ccc1-2, which logP [1] is on record?
Answer: Its logP is 3.95.

Question: What about the Activity [2] of the same compound?
Answer: Its Activity is 2.79.

Question: Which results are given for O=[N+]([O-])c1cc2c([N+](=O)[O-])ccc3c2c(c1[N+](=O)[O-])-c1ccccc1-3?
Answer: logP [1]: 4.18; Activity [2]: 3.56

Question: Which logP [1] does the source give for O=[N+]([O-])c1ccc2c3ccccc3c3ccccc3c2c1 here?
Answer: The logP was 5.41.

Question: What about the Activity [2] of the same compound?
Answer: The Activity was 4.09.

Question: What does the source list for O=[N+]([O-])c1cc2c(cc1Cl)Oc1cc(Cl)c(Cl)cc1O2?
Answer: logP [1]: 6.68; Activity [2]: -0.53

Question: With Cc1cc2ccccc2cc1[N+](=O)[O-] as the compound, how does the logP [1] read?
Answer: Its logP is 3.43.

Question: What about the Activity [2] of the same compound?
Answer: The Activity was 0.

Question: For O=C1Nc2ccc([N+](=O)[O-])cc2C1=O [5-NITROISATIN], which logP [1] is on record?
Answer: The logP was 0.47.

Question: And the Activity [2]?
Answer: Its Activity is -0.94.

Question: Which results are given for O=[N+]([O-])c1cccc2cnccc12?
Answer: logP [1]: 1.65; Activity [2]: -1.55

Question: For O=[N+]([O-])c1ccc2c3ccc([N+](=O)[O-])c4ccc5ccc6ccc1c2c6c5c43, which logP [1] is on record?
Answer: The logP was 6.07.

Question: And the Activity [2]?
Answer: The Activity was 3.6.

Question: With O=[N+]([O-])c1ccc2c(c1)-c1ccc([N+](=O)[O-])c3cccc-2c13 as the compound, how does the logP [1] read?
Answer: The logP was 4.44.

Question: And the Activity [2]?
Answer: The Activity was 5.02.

Question: With O=Cc1ccc([N+](=O)[O-])o1 as the compound, how does the logP [1] read?
Answer: Its logP is 1.01.

Question: What about the Activity [2] of the same compound?
Answer: The Activity was 0.64.

Question: Which logP [1] does the source give for O=C/C=C/c1ccc([N+](=O)[O-])o1 here?
Answer: The logP was 0.96.

Question: What about the Activity [2] of the same compound?
Answer: Its Activity is 1.97.

Question: What does the source list for O=[N+]([O-])c1ccc2c(c1)CCc1ccccc1-2?
Answer: logP [1]: 4.53; Activity [2]: 1.99

Question: Which logP [1] does the source give for O=[N+]([O-])c1ccc2c(c1)Oc1cc(Cl)c(Cl)cc1O2 here?
Answer: Its logP is 6.24.

Question: And the Activity [2]?
Answer: Its Activity is 1.73.

Question: For O=[N+]([O-])C1=Cc2c3c1cccc3cc1ccc3ccccc3c21, which logP [1] is on record?
Answer: The logP was 5.07.

Question: What about the Activity [2] of the same compound?
Answer: The Activity was 0.26.

Question: What does the source list for O=[N+]([O-])c1ccc2c(c1)Cc1cc(I)ccc1-2?
Answer: logP [1]: 5.09; Activity [2]: 2.97

Question: What does the source list for COc1ccccc1[N+](=O)[O-] [2-NITROANISOLE]?
Answer: logP [1]: 1.73; Activity [2]: -2.7

Question: With O=[N+]([O-])c1ccc2c(c1)Cc1cccc([N+](=O)[O-])c1-2 as the compound, how does the logP [1] read?
Answer: The logP was 3.71.

Question: What about the Activity [2] of the same compound?
Answer: The Activity was 3.2.

Question: With O=[N+]([O-])c1c2ccccc2c2ccc3cccc4ccc1c2c43 as the compound, how does the logP [1] read?
Answer: The logP was 5.87.

Question: What about the Activity [2] of the same compound?
Answer: Its Activity is 1.64.

Question: For O=[N+]([O-])C1=CC2Nc3cc([N+](=O)[O-])ccc3NC2C=C1 (stereo not drawn), which logP [1] is on record?
Answer: Its logP is 2.29.

Question: And the Activity [2]?
Answer: The Activity was 2.75.

Question: Which logP [1] does the source give for O=[N+]([O-])c1ccc2c(ccc3c4ccccc4ccc23)c1 here?
Answer: The logP was 5.41.

Question: What about the Activity [2] of the same compound?
Answer: The Activity was -0.22.

Question: With Cn1c([N+](=O)[O-])nc2ccccc21 as the compound, how does the logP [1] read?
Answer: Its logP is 1.58.

Question: What about the Activity [2] of the same compound?
Answer: Its Activity is 2.54.

Question: Which logP [1] does the source give for O=[N+]([O-])c1ccc(Cl)c([N+](=O)[O-])c1 [DINITROCHLOROBENZENE] here?
Answer: Its logP is 2.17.

Question: And the Activity [2]?
Answer: The Activity was 0.3.

Question: Which results are given for O=[N+]([O-])c1cc([N+](=O)[O-])c2c3c(c4cccc5ccc1c2c54)CCCC3?
Answer: logP [1]: 6.01; Activity [2]: 2.41

Question: For O=[N+]([O-])c1cc([N+](=O)[O-])c2ccccc2c1, which logP [1] is on record?
Answer: The logP was 2.83.

Question: And the Activity [2]?
Answer: Its Activity is -0.05.

Question: Which logP [1] does the source give for O=[N+]([O-])c1cccc2ncccc12 here?
Answer: The logP was 1.86.

Question: What about the Activity [2] of the same compound?
Answer: The Activity was -0.96.

Question: Which results are given for Cc1ccc2c(c1)Cc1cc([N+](=O)[O-])ccc1-2?
Answer: logP [1]: 4.62; Activity [2]: 2.36

Question: Which results are given for O=[N+]([O-])C1=Cc2c3ccc4ccccc4c3cc3cccc1c23?
Answer: logP [1]: 5.07; Activity [2]: 0.86

Question: For Cc1ccccc1-c1ccc([N+](=O)[O-])c(C)c1, which logP [1] is on record?
Answer: The logP was 4.49.

Question: And the Activity [2]?
Answer: Its Activity is -0.84.

Question: For O=[N+]([O-])c1ccc2cc3ccccc3cc2c1, which logP [1] is on record?
Answer: The logP was 4.23.

Question: And the Activity [2]?
Answer: Its Activity is 2.95.

Question: Which logP [1] does the source give for Nc1cccc(-c2ccccc2[N+](=O)[O-])c1 here?
Answer: Its logP is 2.68.

Question: And the Activity [2]?
Answer: The Activity was -2.

Question: Which logP [1] does the source give for O=[N+]([O-])c1ccc2c(c1)Oc1ccccc1O2 here?
Answer: The logP was 4.73.

Question: And the Activity [2]?
Answer: The Activity was 1.79.

Question: Which logP [1] does the source give for O=[N+]([O-])c1ccc2ccc3c([N+](=O)[O-])ccc4ccc1c2c43 here?
Answer: The logP was 4.44.

Question: What about the Activity [2] of the same compound?
Answer: The Activity was 5.06.

Question: With O=[N+]([O-])c1ccc2c3c(c4cccc5ccc1c2c54)CCCC3 as the compound, how does the logP [1] read?
Answer: The logP was 6.26.

Question: What about the Activity [2] of the same compound?
Answer: The Activity was 0.78.

Question: What does the source list for O=[N+]([O-])C1=CC=CC2Nc3cccc([N+](=O)[O-])c3NC12 (stereo not drawn)?
Answer: logP [1]: 2.29; Activity [2]: 1.26

Question: For O=[N+]([O-])c1ccc2c(c1)Nc1cccc([N+](=O)[O-])c1N2, which logP [1] is on record?
Answer: Its logP is 2.29.

Question: And the Activity [2]?
Answer: The Activity was 2.02.

Question: What does the source list for O=[N+]([O-])c1cc2c3c(c([N+](=O)[O-])c([N+](=O)[O-])cc3c1)-c1ccccc1-2?
Answer: logP [1]: 4.18; Activity [2]: 3.16
